Measurements taken from patent US20020173549A1, “Compositions and methods for treatment of mild cognitive impairment” (priority 2000, published 2002).

What was measured:
[1] = test system: APP holoprotein; assay: Cell-associated APP holoprotein in cultured astrocytes (Western blot); assay type: cell-based, rat; design: basal APPh levels (compound by itself): unit of the concentration uncertain
Description: (§1) Astrocytes are isolated from cortices from postnatal rats by methods standard in the art. In brief, dissected cortices are dissociated by trypsinization and trituration through a flame-polished Pasteur pipette. Cells are plated onto poly-L-lysine coated 35- or 100 mm culture dishes at densities of about 10-25 cells/mm^2. The initial culture media, minimal essential medium (MEM, Gibco) containing 10% horse serum (BioWhittaker), are aspirated after 2-5 h after plating to remove unattached cells and debris, and replaced with MEM containing 7.5% fetal bovine serum (FBS, BioWhittaker). Half the media is replaced with MEM/7.5% FBS twice weekly. Cells are kept at 37° C. in a humidified 5% CO2/95% air incubator. Media are changed twice weekly. […] Pharmacological manipulations are performed in serum-free media on 7-14 DIV confluent astrocytes.
To detect cell-associated proteins (APP or GFAP), astrocytes from 35 mm dishes are scraped into lysis buffer (60 mm Tris/HCl, 4% SDS, 20% glycerol, 1 mm dithiothreitol), ultrasonicated and boiled for […]. The total amount of cell protein per dish, estimated using the bicinchoninic acid assay, is not altered by pharmacological treatments. Bromphenol blue (0.1%) is added to each sample and equal amounts of protein ([…]) are loaded on 10% SDS polyacrylamide gels.
The amount of media or cell protein loaded for sodium dodecyl sulfate-polyacrylamide gel electrophoresis (10-20% SDS PAGE; Bio-Rad) is normalized for the amount of protein per sample. Proteins (equivalent to 100 μg cell protein/lane) are separated by electrophoresis, electroblotted onto polyvinylidene difluoride membranes (Immobilon-P, Millipore) and blocked in Tris-buffered saline with 0.15% Tween 20 (TEST) containing 5% powdered milk for 30 min. After 2×10 mm rinses in TBST, the membranes are incubated in TEST containing an appropriate antibody. Monoclonal antibodies 22C11 and GFAP (both from Boehringer Mannheim) are used to detect the N-terminus of APP and glial fibrillary acidic protein respectively; antisera R37 and R98 (gifts of Dr. F. Kametani, Tokyo Institute of Psychiatry) are used to detected the C-terminus and KPI motifs of APP respectively; antiserum C8 (gift of Dr. D. Selkoe, Women's Hospital, Harvard Medical School, Cambridge, Mass.) is used to detect the C-terminus of APP.
After an overnight incubation, membranes are rinsed in TBST then treated for 1 h with a peroxidase-linked secondary antibody. After several rinses in TEST, protein bands are visualized on Kodak X-AR films by an enhanced chemiluminescence method (Amersham). Optical densities of the protein bands are quantitated by laser scanning densitometry (LICE, Bromma, Sweden), and normalized to the densities of those bands generated under control conditions.
Measurements of cellular and secreted proteins, or of mRNA in treatment groups are normalized against those of control groups which are prepared in parallel and loaded onto the same blot. Analysis of variance (ANOVA) and t-tests are used to evaluate differences between groups (significance level, p=0.05), using drug treatments as the independent variable.

[2] = test system: cAMP; assay: PGE2-induced cAMP increases in 10-day old rat cortical neurons; assay type: cell-based; design: effect on basal cAMP levels: unit of the concentration uncertain; settings: for effect on basal cAMP levels: no PGE2, cortical neurons; for effect on PGE2-stimulated cAMP levels: cortical neurons
Description: FIG. 5. Effect of Cannabinoids on Prostaglandin E2-Induced cAMP Increases in 10-Day Old Rat Cortical Neurons.
Levels of cyclic AMP are measured with an [8-^3H]-cAMP assay kit (Amersham TRK 432) in astrocytes grown on 35 mm dishes. In brief, after aspirating the medium and rinsing twice with 1 ml ice cold PBS, the cells are scraped in 0.8 mL ice cold ethanol and sonicated. The cell suspension is incubated for […] at room temperature, centrifuged and the supernatant is dried in a rotary evaporator. After resuspension in 120 μL Tris/EDTA buffer, two duplicate samples of 50 μl each are mixed with the binding protein, [8-^3H] adenosine 3′,5′-cyclic phosphate tracer and incubated at 2-4° C. for 2 h. A charcoal suspension (100 μL) is added to the samples before centrifugation and 200 μL of the supernatant is removed for scintillation counting. The amount of cyclic AMP (pmol/mg protein) is estimated by comparing to known standards, and normalized to the amounts of whole cell protein as determined by the bicinchoninic acid assay (Sigma).
Referring now to FIG. 5, cell cultures of 10-day old cortical neurons are used to assess the affect of anandamide (50 M), methanandamide (10 M), and 2-AG (50 M) on PGE2-stimulated cAMP levels. PGE2 (50 M) is found to elevate cAMP levels about 1.6-fold over basal (control).

[3] = test system: APP mRNA; assay: APP mRNA levels in cultured astrocytes (Northern blot); assay type: cell-based, rat; settings: 1, 10 or 100 μM, 24 h
Description: as §1
Total RNA from astrocytes grown on 100 mm dishes is extracted by the acid guanidium thiocyanate-phenol chloroform method. […] The levels of APP mRNA are normalized to the amounts of G3PDH mRNA and expressed as a ratio to the levels of untreated, control cells.
Confluent monolayers of astrocytes prepared according to Example 8.1 are treated with serum-free media containing 50, 100, or 250 μM 8Br-cAMP for varying durations (1 h, 6 h, 12 h, or 24 h). Levels of cAMP in astrocytes are measured with a [8-^3H]-cAMP assay kit (Amersham TRK 432).

[4] = test system: soluble APP (APPs); assay: Secreted soluble APP in astrocyte culture media (Western blot); assay type: cell-based, rat; settings: astrocytes
Description: as §1
To detect secreted APP, culture media is collected after drug treatments and phenylmethylsulfonyl fluoride is added to a final concentration of 2 mM. The media samples are then applied to Sephadex PD-b desalting columns (Pharmacia) and eluted with distilled water. […]
The amount of media or cell protein loaded for sodium dodecyl sulfate-polyacrylamide gel electrophoresis (10-20% SDS PAGE; Bio-Rad) is normalized for the amount of protein per sample. […] Monoclonal antibodies 22C11 and GFAP (both from Boehringer Mannheim) are used to detect the N-terminus of APP and glial fibrillary acidic protein respectively; antisera R37 and R98 (gifts of Dr. F. Kametani, Tokyo Institute of Psychiatry) are used to detected the C-terminus and KPI motifs of APP respectively; antiserum C8 (gift of Dr. D. Selkoe, Women's Hospital, Harvard Medical School, Cambridge, Mass.) is used to detect the C-terminus of APP.
After an overnight incubation, membranes are rinsed in TBST then treated for 1 h with a peroxidase-linked secondary antibody. […] Optical densities of the protein bands are quantitated by laser scanning densitometry (LICE, Bromma, Sweden), and normalized to the densities of those bands generated under control conditions. […]

[5] = test system: Abeta; assay: Total Abeta media concentration in CHO cells transfected with human APP gene construct; assay type: cell-based, Chinese Hamster; design: unit of the concentration uncertain
Source text: FIG. 3. Effect of Varying Concentrations of Resveratrol on Total Abeta Media Concentration in CHO Cells Transfected with Human APP Gene Construct at Four Hours.

CCCCC/C=C\C/C=C\C/C=C\C/C=C\CCCC(=O)N[C@H](C)CO [Methanandamide, methanandamide]
effect on PGE2-stimulated APPh levels ([1]; 10 M methanandamide compared with 50 μM anandamide, cultured astrocytes): more efficacious than anandamide | effect on basal cAMP levels ([2]; 10 (unit uncertain)): no effect on basal levels | effect on PGE2-stimulated cAMP levels ([2]; 10 M with PGE2 50 M): inhibit the PGE2-induced increase in cAMP levels

CCCCC[C@H](O)/C=C/[C@H]1[C@H](O)CC(=O)[C@@H]1C/C=C\CCCC(=O)O [PGE2, prostaglandin E2]
amounts of astrocytic APP mRNA (4.5 kb) relative to untreated cells [3]: significantly increases | increase in APPh levels compared to controls ([1]; 50 μM prostaglandin E2 alone, cultured astrocytes, two experiments): ~75% | increase in APPh levels ([1]; PGE2 alone, cultured astrocytes (FIG. 4)): three-fold | cAMP levels over basal (control) ([2]; PGE2 50 M alone, 10-day old cortical neurons): about 1.6 fold | APP secreted in the media (110-130 kD) ([4]; 1, 10 or 100 μM, 24 h): also increased

Cc1c(C(=O)c2cccc3ccccc23)c2cccc3c2n1[C@H](CN1CCOCC1)CO3 [WIN55212-2]
effect on APPh levels in the absence of PGE2 ([1]; 100 µM, cultured astrocytes): no statistically significant effect | increase in APPh levels with PGE2 stimulation ([1]; WIN55212-2 100 M added to PGE2, cultured astrocytes): limited to two-fold

CCCCC/C=C\C/C=C\C/C=C\C/C=C\CCCC(=O)NCCO [anandamide]
increase in APPh levels over control in presence of PGE2 ([1]; 50 μM anandamide with 50 μM prostaglandin E2, cultured astrocytes): about 55% | basal APPh levels (compound by itself) ([1]; 50 µM, without PGE2, cultured astrocytes): reduce APPh levels below control values | effect on PGE2-stimulated cAMP levels ([2]; 50 µM with PGE2 50 M): suppress the PGE2-induced stimulation | effect on basal cAMP levels ([2]; 50 (unit uncertain)): no effect on basal levels

Oc1ccc(C=Cc2cc(O)cc(O)c2)cc1 [resveratrol]
Abeta levels in the media ([5]; 100 (unit uncertain), four-hour treatment): decrease to about half | Abeta levels in the media ([5]; lower concentrations (0.1, 1.0, 10 (unit uncertain)), four hours): not to differ from control | decrease in APP holoprotein ([1]; 10 μM (so in the source) and intermediate concentrations, one hour, astrocytes, p<0.05): significant decrease | levels of cellular amyloidogenic APP holoprotein ([1]; 10 μM and higher, one hour, astrocytes, p<0.05): decreased to about half | stimulation of APPs ([4]; 10 nM and intermediate concentrations, one hour): Significant stimulation | formation of soluble APP (APPs) over control ([4]; 10 μM and higher, one hour, average of four experiments, p<0.05): about two-fold over control
